Laboratory results as given in PubChem BioAssay (NCI).
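Protocol summary: plate cells (96-well), add compound at 5 concentrations, incubate 48 h, interpolate endpoints linearly. TGI: total growth inhibition.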

What was measured:
Assay in all cases: NCI tumour cell line growth inhibition, 48 h
SK-MEL-2 melanoma = test system: SK-MEL-2 melanoma
MDA-N = test system: MDA-N
UACC-62 melanoma = test system: UACC-62 melanoma
M14 melanoma = test system: M14 melanoma
NCI-H522 lung = test system: NCI-H522 lung
NCI-H23 lung = test system: NCI-H23 lung
UACC-257 melanoma = test system: UACC-257 melanoma
A498 renal = test system: A498 renal
KM12 colon = test system: KM12 colon
TK-10 renal = test system: TK-10 renal
HCT-116 colon = test system: HCT-116 colon

SMILES	TGI (SK-MEL-2 melanoma) [µM]	TGI (MDA-N) [µM]	TGI (UACC-62 melanoma) [µM]	TGI (M14 melanoma) [µM]	TGI (NCI-H522 lung) [µM]	TGI (NCI-H23 lung) [µM]	TGI (UACC-257 melanoma) [µM]	TGI (A498 renal) [µM]	TGI (KM12 colon) [µM]	TGI (TK-10 renal) [µM]	TGI (HCT-116 colon) [µM]
Cn1c(=O)c2sc3cc4c(cc3c2c2ccccc21)sc1c(=O)n(C)c2ccccc2c14	> 100	> 100	> 100	> 100	> 100	> 100	> 100	> 100	> 100	> 100	> 100
O=C(NC/C=C/Br)NC1CCNc2ccccc21 (stereo unspecified)	86.8	> 100	58.7	34.5	> 100	55.4	54.9	70.4	> 100	> 100	> 100
CN(C)c1ccc(/C=C2\C[C@H]3[C@@H]4CCc5cc(O)ccc5[C@H]4CC[C@]3(C)C2=O)cc1	> 100	> 100	86.1	> 100	–	> 100	> 100	> 100	> 100	> 100	–
CCC1CCC2c3c([nH]c4ccccc34)C3C(=O)N(c4ccc(OC)cc4)C(=O)C3C2C1 (stereo unspecified)	–	> 100	> 100	> 100	> 100	> 100	> 100	–	> 100	85.8	> 100
Nc1ccc(-c2nc3ccccc3s2)cc1	64.2	35.2	38.6	34	40.1	43.1	49.7	65	47.6	42.3	35.2
Cc1cccc(C(O)c2cccnc2)c1O (stereo unspecified)	–	> 100	> 100	–	> 100	> 100	> 100	–	> 100	> 100	> 100
CCOC(=O)c1c(-c2ccc(OC)c(O)c2)c(C#N)c(=S)n(C2OC(CO)C(O)C(O)C2O)c1-c1ccccc1 (stereo unspecified)	–	> 100	> 100	> 100	–	> 100	> 100	> 100	> 100	–	> 100
C=C1C(=O)O[C@H]2[C@H]([C@H](C)CCCC(C)=O)O[C@H]([C@@]3(C)CCC(=O)O3)C[C@@H]12	> 100	> 100	> 100	> 100	64.8	> 100	> 100	> 100	> 100	52.3	85.5
CC1(C)CC(=O)C(=CN2C(=O)CNC2=S)C(=O)C1	> 100	> 100	> 100	> 100	> 100	> 100	> 100	–	> 100	> 100	> 100
C=CCn1c(=O)c2ccccc2[n+]2c(-c3cccc([N+](=O)[O-])c3)csc12	> 100	> 100	> 100	> 100	> 100	> 100	> 100	> 100	> 100	> 100	> 100
Cc1cccc2c1C(=O)[C@@](C)([C@]1(C)Nc3cccc(C)c3C1=O)N2	> 100	> 100	> 100	> 100	> 100	> 100	> 100	> 100	> 100	–	> 100
N#Cc1c(C#N)c(-c2ccccc2)n(/N=C\c2ccccc2)c1N	87.3	> 100	41.5	> 100	49.5	> 100	70.3	77.4	> 100	> 100	> 100
COc1cc(-c2[o+]c3cc(O)cc(OC4OC(CO)C(O)C(O)C4O)c3cc2OC2OC(CO)C(O)C(O)C2O)cc(OC)c1O (stereo unspecified)	> 100	> 100	> 100	> 100	> 100	> 100	> 100	> 100	> 100	> 100	> 100
COC(=O)C(C(=O)OC)C1CC(=O)c2c(Br)sc(Br)c21 (stereo unspecified)	27.4	> 100	29.6	40.8	–	25.4	76.8	> 100	> 100	86.7	30.9
O=C(NCc1cccnc1)C(=O)NCc1cccnc1	> 100	> 100	> 100	> 100	> 100	> 100	> 100	> 100	> 100	> 100	> 100
O=C1C(=Cc2ccccc2[N+](=O)[O-])N=C(c2ccccc2)N1n1c(-c2ccccc2)nc2ccccc2c1=O	88.2	> 100	46.6	> 100	31.8	65	90.7	–	66.2	> 100	33.7
Cc1cc(C)c2c(c1)CC1(Cc3c(C)cc(C)cc3C1=O)C2=O (stereo unspecified)	> 100	> 100	> 100	> 100	> 100	–	> 100	> 100	> 100	> 100	–
CCOC(=O)CCC(C(=O)OCC)n1nnc2cc(Nc3c(C)[n+]([O-])c4ccc(Cl)cc4[n+]3[O-])ccc21 (stereo unspecified)	> 100	> 100	> 100	> 100	> 100	> 100	> 100	> 100	> 100	> 100	> 100
O=C(Nc1nc(C23CC4CC(CC(C4)C2)C3)cs1)c1cc2cc([N+](=O)[O-])ccc2oc1=O	–	> 100	–	–	> 100	> 100	> 100	> 100	> 100	> 100	> 100
CC1(C)CC2(C)OC(=N)C1(C#N)C2(C#N)C#N (stereo unspecified)	31.7	20.2	24.9	23.8	8.38	21.4	19.9	28.7	29.4	22.7	20.1
